In the supplement of paper PMC2824726:
Values joined by “and” are separate entries in the source; they are usually repeats but may differ in a detail not shown here. Equal values may be shown once.

Test system: MDA-MB-231
Assay: shRNA barcode abundance ratio t_end/t_zero (depletion over 4 weeks of proliferation) (log2 ratio); higher = less depletion (weaker anti-proliferative effect of the shRNA)
Settings: time after t zero 28 days
Method in brief: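 Pooled lentiviral shRNA library transduced into MDA-MB-231 cells at MOI 0.3 and selected in 0.5 μg/ml puromycin. Genomic DNA was taken at 5 days (t_zero) and 33 days post-infection from three biological replicates. Barcodes were PCR-amplified, biotin-labelled and hybridised to Geniom One tiling arrays (six 25-nt probes per barcode) at 45°C for 16 h, with streptavidin phycoerythrin detection. The abundance ratio is the log2 mean, over background-filtered probes, of subarray-median-normalised t_end/t_zero signal ratios.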

Row | Sequence | shRNA barcode abundance ratio t end/t zero (log2)
1 | GCTCTTCCACTCAGGTGAGAA (targeted gene: LOC284939) | -0.0337
2 | GCAGATTCAAGTCAATCTGAA (targeted gene: NFIA) | 0.355
3 | GCAGCTTCCTTGAACCATTAT (targeted gene: SPHK1) | -0.397
4 | GGGCAAGTTTCCATCATCTAT (targeted gene: TDGF1) | -0.11
5 | GCTCAGTGAGCCCATGGAATT (targeted gene: RELA) | 0.332
6 | ACTTACACTTAGAAATTAAAT (targeted gene: XIAP) | 0.473
7 | CCTGTTATCAATCTGCTAAAT (targeted gene: FOXO1) | 0.0156
8 | GCACAAGCAGCTGATCCGATT (targeted gene: IL4) | -0.0177
9 | CGCCTTTCCTTAAGGAACAAA (targeted gene: NAIP) | 0.0933
10 | CCCAGCAATAATTTAAACTTA (targeted gene: WRN) | 0.168
11 | GGCCCAAGGTCCAAGTAGAAT (targeted gene: HSPA8) | 0.332
12 | GCGCGAGTTCGCTTCTAATAT (targeted gene: GSX1) | 0.174
13 | GCGCACAGGCTTTATCGAGAA (targeted gene: IGFBP3) | -0.0187
14 | GGATATTGAACAGAGTATTAA (targeted gene: ANXA4) | -0.0211
15 | ACGCTCTGTGGCCAGTGTAAA (targeted gene: SULF2) | 0.249
16 | GCAAAGAATCTAGATGCAATA (targeted gene: IL6) | 0.508 and 0.569
17 | CCAATTCAAGTGATCCGCAAA (targeted gene: BAG3) | 0.175
18 | CCTGCCCATTAGAGAAGTATT (targeted gene: VHL) | -0.221
19 | GCACAACCAGTTCTGCAATAT (targeted gene: TAX1BP1) | 0.565
20 | GCACATCCTTGCTAATTTCAA (targeted gene: TPT1) | 0.0219
21 | CCTCACCCTGTCAGGTATCAA (targeted gene: MYBL2) | -0.1
22 | GCGTCTGGCCTCCTTCTATGA (targeted gene: BIRC7) | 0.556
23 | GGACAGTGCTTGATACAGGAA (targeted gene: PIM1) | 0.128
24 | CGGGTTTCTCCGGCGTCATTA (targeted gene: PIM1) | 0.0461 and 0.0898
25 | GGCCCAAATTATCAAGCTAAT (targeted gene: CRYAB) | -0.348
26 | GCACTTGCCTTTAAACTATGT (targeted gene: NFIA) | 0.384

Row | Sequence | shRNA barcode abundance ratio t end/t zero (log2)
27 | GCGTTTAAGGTGAGCATAAAT (targeted gene: CYP1B1) | -0.142
28 | CCCGTATGTGTCAACACCTAT (targeted gene: CRTAC1) | -0.136
29 | GCACAGCATCAAACCAAGTTA (targeted gene: MLH1) | 0.165
30 | CCTCACCCTGTACCAGTCCAA (targeted gene: GSTP1) | -0.648
31 | CATCTCAGTATGCATGGTATA (targeted gene: CFLAR) | -0.976
32 | CCTGGGCATTCTTGTTTCAAT (targeted gene: IL1A) | -0.328
33 | CCTTCCAGAGTTATGGAAATT (targeted gene: BCL2A1) | 0.456
34 | TCTGAGGAAGAGATCATCAAA (targeted gene: PEA15) | -0.849
35 | CCGAACATTAGGAATTGTTTA (targeted gene: ACVR1) | 0.264
36 | AGACATAAAGCCATCTCTTAT (targeted gene: NME5) | 0.11
37 | GCTTCCTACAGCACAACAAAT (targeted gene: VEGFA) | 0.437
38 | GCATCATGCCTTCTGAATAAA (targeted gene: CLN3) | 0.486
39 | CAACGGAACTTGTTTGCTCTT (targeted gene: SOCS3) | -0.536
40 | GGACTTCAGCAGAAATCTTTA (targeted gene: CASP8) | 0.126
41 | CCAGATAATATTAAGGGAAAT (targeted gene: ABCB1) | 0.255
42 | GGAAATTCTTTCACTTCATTA (targeted gene: MCL1) | 0.208
43 | GGCAGCTTCCTTGAACCATTA (targeted gene: SPHK1) | -0.334
44 | ACTTCAGAAATGGCACGATAA (targeted gene: AATF) | 0.24
45 | TGTTAACAAATGTGGCAATTA (targeted gene: TPT1) | 0.164
46 | CGGAGAGTTATCCTGATAAAT (targeted gene: SFRP1) | -0.114
47 | CCAGTGACCTTCGCTCCACAT (targeted gene: BAD) | 0.391
48 | CCTTGGAAAGGATGAACAAAT (targeted gene: TOPORS) | 0.154
49 | CCGTGCTAACTGTGTGTACAT (targeted gene: PEA15) | -1.15
50 | CCACCCTGAGCCATTATCTAA (targeted gene: PSEN1) | 0.146
51 | CGGATTAGGGCATTTGAGAAA (targeted gene: IL7) | 0.319
52 | CCTAGAAGCATTTATGATTTA (targeted gene: BCL2L2) | 0.344

Row | Sequence | shRNA barcode abundance ratio t end/t zero (log2)
53 | GGCCTTGGAACTGATGAAGAT (targeted gene: ANXA1) | 0.259
54 | CCTTTGAACTTGATTGCCTAT (targeted gene: SFRP1) | -0.127
55 | ACAGATATTTACTTCTGCAAA (targeted gene: CD28) | 0.143
56 | TCTCTTAAAGTTGATATCTTA (targeted gene: TNFAIP3) | 0.213
57 | CCAGAGAATTTGCTTACCAAA (targeted gene: RALBP1) | 0.116
58 | GCCCTGATTGTGTATATTCAT (targeted gene: BCL2) | 0.006
59 | GCTAAGAGATTCGCCTTAAAT (targeted gene: SOCS3) | 0.308
60 | GGGTAGAAATTGGCTTCATAA (targeted gene: WRN) | -0.246
61 | GCACAGGCTTTATCGAGAATA (targeted gene: IGFBP3) | 0.0415
62 | CCATATTTGCATTTGAAGGTA (targeted gene: BCL2A1) | 0.349
63 | CCTTAAATCCTCATTGCAAAT (targeted gene: USP9X) | -0.782
64 | ACTCTAATCTCCACATTTATA (targeted gene: XIAP) | 0.0933
65 | TCACACTGGTTCTCAATGAAA (targeted gene: BAG1) | 0.198
66 | GCCACATGTCTTTGCTTGATA (targeted gene: NAIP) | 0.453
67 | GGACATCTAGTCACTTGTAAA (targeted gene: XIAP) | 0.00436
68 | GCCAAGTTCTTAGTTGCTGTA (targeted gene: CXCR4) | -1.59
69 | GAGGATTATGGCTAACAAGAA (targeted gene: MCL1) | 0.27
70 | GGTAGCAATTGCCTGAATAAT (targeted gene: IL7) | -0.149
71 | GATGATAGTATTGAAGCAGAT (targeted gene: BNIP2) | 0.366
72 | CGACTTAGACTTGACCTATAT (targeted gene: PTEN) | -0.304
73 | GGCTTTACTCCGTAACAGATT (targeted gene: RHOA) | -2.14
74 | TCCAATTAACTTCTCCATAAT (targeted gene: MTL5) | 0.712
75 | GCTCTGTACTTCAACCCAATT (targeted gene: BFAR) | 0.0174
76 | GCCAATATTGTGTTTGGATAT (targeted gene: MALT1) | 0.354
77 | GCATCTTCTTCGGTGAAATAT (targeted gene: BNIP2) | -0.0165
